In PubChem BioAssay (NCI):
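Each compound was tested at five concentrations against cells in 96-well plates for 48 hours. At the GI50, growth is halved. The concentration for full growth arrest is given as TGI.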 Where a SMILES comes first, the peptide text is derived from it. [ ]: non-standard residue; d: D form. The star is where a group is joined. Phe(4-NO2) = N[CH](Cc1ccc([N+](=O)[O-])cc1)C(=O)O; Boc = CC(C)(C)OC(=O)*; OtBu = CC(C)(C)O*

Experiments:
Assay in all cases: growth of human tumour cells (NCI), 48 h
786-0 renal = system: 786-0 renal
A498 renal = system: A498 renal
A549 NSCLC = system: A549 NSCLC
ACHN renal = system: ACHN renal
CAKI-1 renal = system: CAKI-1 renal
CCRF-CEM leukemia = system: CCRF-CEM leukemia
COLO 205 colon = system: COLO 205 colon
DU-145 prostate = system: DU-145 prostate
EKVX NSCLC = system: EKVX NSCLC
HCC-2998 colon = system: HCC-2998 colon
HCT-116 colon = system: HCT-116 colon
HCT-15 colon = system: HCT-15 colon
HL-60(TB) leukemia = system: HL-60(TB) leukemia
HOP-62 NSCLC = system: HOP-62 NSCLC
HOP-92 NSCLC = system: HOP-92 NSCLC
HS 578T breast = system: HS 578T breast
HT29 colon = system: HT29 colon
IGROV1 ovarian = system: IGROV1 ovarian
K-562 leukemia = system: K-562 leukemia
KM12 colon = system: KM12 colon
LOX IMVI melanoma = system: LOX IMVI melanoma
M14 melanoma = system: M14 melanoma
MALME-3M melanoma = system: MALME-3M melanoma
MDA-MB-231 breast = system: MDA-MB-231 breast
MDA-MB-435 = system: MDA-MB-435
MDA-N = system: MDA-N
MOLT-4 leukemia = system: MOLT-4 leukemia
NCI-H226 lung = system: NCI-H226 lung
NCI-H23 lung = system: NCI-H23 lung
NCI-H460 lung = system: NCI-H460 lung
NCI-H522 lung = system: NCI-H522 lung
NCI/ADR-RES ovarian = system: NCI/ADR-RES ovarian
OVCAR-3 ovarian = system: OVCAR-3 ovarian
OVCAR-4 ovarian = system: OVCAR-4 ovarian
OVCAR-5 ovarian = system: OVCAR-5 ovarian
OVCAR-8 ovarian = system: OVCAR-8 ovarian
PC-3 prostate = system: PC-3 prostate
RXF 393 renal = system: RXF 393 renal
SF-268 CNS = system: SF-268 CNS
SF-295 CNS = system: SF-295 CNS
SF-539 CNS = system: SF-539 CNS
SK-MEL-2 melanoma = system: SK-MEL-2 melanoma
SK-MEL-28 melanoma = system: SK-MEL-28 melanoma
SK-MEL-5 melanoma = system: SK-MEL-5 melanoma
SK-OV-3 ovarian = system: SK-OV-3 ovarian
SN12C renal = system: SN12C renal
SNB-19 CNS = system: SNB-19 CNS
SNB-75 CNS = system: SNB-75 CNS
SR leukemia = system: SR leukemia
SW-620 colon = system: SW-620 colon
T-47D breast = system: T-47D breast
TK-10 renal = system: TK-10 renal
U251 CNS = system: U251 CNS
UACC-257 melanoma = system: UACC-257 melanoma
UACC-62 melanoma = system: UACC-62 melanoma
UO-31 renal = system: UO-31 renal
MCF7 breast = system: MCF7 breast
RPMI-8226 leukemia = system: RPMI-8226 leukemia

Work on `CCCc1cc2c(cc1O)CC[C@@H]1[C@@H]2CC[C@]2(C)[C@@H](O)CC[C@@H]12` yielded a TGI (786-0 renal) of 26.6 µM, a TGI (A498 renal) of 32.3 µM and a TGI (A549 NSCLC) of 22.9 µM. For the same compound, the TGI (ACHN renal) was 25.6 µM, the TGI (CAKI-1 renal) was 24.8 µM and the TGI (CCRF-CEM leukemia) was 20.9 µM. The TGI (COLO 205 colon) was 34.5 µM, the GI50 (DU-145 prostate) was 18.8 µM and the TGI (DU-145 prostate) was 32.8 µM. It also gave a TGI (EKVX NSCLC) of 26.2 µM, a TGI (HCC-2998 colon) of 33 µM and a GI50 (HCT-116 colon) of 6.54 µM. The TGI (HCT-116 colon) was 19.8 µM, the TGI (HCT-15 colon) was 18.1 µM and the TGI (HL-60(TB) leukemia) was 29.7 µM. It also gave a GI50 (HOP-62 NSCLC) of 16 µM, a TGI (HOP-62 NSCLC) of 34.2 µM and a TGI (HOP-92 NSCLC) of 33.6 µM. It also gave a TGI (HS 578T breast) of 32.3 µM, a TGI (HT29 colon) of 31.1 µM and a TGI (IGROV1 ovarian) of 30.2 µM. For the same compound, the TGI (K-562 leukemia) was 13.6 µM, the TGI (KM12 colon) was 22.6 µM and the TGI (LOX IMVI melanoma) was 24 µM. The TGI (M14 melanoma) was 23 µM, the TGI (MALME-3M melanoma) was 27.9 µM and the TGI (MDA-MB-231 breast) was 40.8 µM. The GI50 (MDA-MB-435) was 2190 nM, the TGI (MDA-MB-435) was 5.1 µM and the TGI (MDA-N) was 6.05 µM. For the same compound, the TGI (MOLT-4 leukemia) was 20.4 µM, the TGI (NCI-H226 lung) was 27.5 µM and the TGI (NCI-H23 lung) was 29.2 µM. It also gave a TGI (NCI-H460 lung) of 24.4 µM, a TGI (NCI-H522 lung) of 24.9 µM and a TGI (NCI/ADR-RES ovarian) of 27.1 µM. The TGI (OVCAR-3 ovarian) was 24.4 µM, the TGI (OVCAR-4 ovarian) was 32.7 µM and the TGI (OVCAR-5 ovarian) was 34.7 µM. The TGI (OVCAR-8 ovarian) was 29.1 µM, the TGI (PC-3 prostate) was 34.5 µM and the TGI (RXF 393 renal) was 22.1 µM. It also gave a TGI (SF-268 CNS) of 28.6 µM, a TGI (SF-295 CNS) of 17.8 µM and a TGI (SF-539 CNS) of 24.4 µM. The TGI (SK-MEL-2 melanoma) was 30.2 µM, the TGI (SK-MEL-28 melanoma) was 25.8 µM and the TGI (SK-MEL-5 melanoma) was 22.4 µM. It also gave a TGI (SK-OV-3 ovarian) of 29.1 µM, a TGI (SN12C renal) of 24.7 µM and a TGI (SNB-19 CNS) of 26.3 µM. The TGI (SNB-75 CNS) was 29.3 µM, the TGI (SR leukemia) was 13.4 µM and the TGI (SW-620 colon) was 17.2 µM. For the same compound, the TGI (T-47D breast) was 32.6 µM, the TGI (TK-10 renal) was 30.1 µM and the TGI (U251 CNS) was 20.3 µM. For the same compound, the TGI (UACC-257 melanoma) was 25.8 µM, the GI50 (UACC-62 melanoma) was 6.02 µM and the TGI (UACC-62 melanoma) was 19.4 µM. It also gave a TGI (UO-31 renal) of 24.6 µM.

With `CC(=O)NC(CCC(=O)OC(C)(C)C)C(=O)NC(CCC(=O)OC(C)(C)C)C(=O)NC(Cc1ccc([N+](=O)[O-])cc1)C(=O)NC(CCCCNC(=O)OC(C)(C)C)C(=O)NC(CCCCNC(=O)OC(C)(C)C)C(=O)NCC(=O)O` (configuration not stated) (Ac-E(OtBu)E(OtBu)[Phe(4-NO2)]K(Boc)K(Boc)G-OH; configuration not given here) the TGI (786-0 renal) was greater than 100 µM, the TGI (A549 NSCLC) was greater than 100 µM and the TGI (ACHN renal) was greater than 100 µM. It also gave a TGI (CAKI-1 renal) greater than 100 µM, a TGI (CCRF-CEM leukemia) greater than 100 µM and a TGI (COLO 205 colon) greater than 100 µM. The TGI (DU-145 prostate) was greater than 100 µM, the TGI (EKVX NSCLC) was greater than 100 µM and the TGI (HCC-2998 colon) was greater than 100 µM. For the same compound, the TGI (HCT-116 colon) was greater than 100 µM, the TGI (HCT-15 colon) was greater than 100 µM and the TGI (HL-60(TB) leukemia) was greater than 100 µM. For the same compound, the TGI (HOP-62 NSCLC) was greater than 100 µM, the TGI (HOP-92 NSCLC) was greater than 100 µM and the TGI (HT29 colon) was greater than 100 µM. It also gave a TGI (IGROV1 ovarian) greater than 100 µM, a TGI (K-562 leukemia) greater than 100 µM and a TGI (KM12 colon) greater than 100 µM. It also gave a TGI (LOX IMVI melanoma) greater than 100 µM, a TGI (M14 melanoma) of 53.5 µM and a TGI (MALME-3M melanoma) greater than 100 µM. For the same compound, the TGI (MCF7 breast) was greater than 100 µM, the TGI (MDA-MB-231 breast) was greater than 100 µM and the TGI (MDA-MB-435) was greater than 100 µM. The TGI (MDA-N) was greater than 100 µM, the TGI (MOLT-4 leukemia) was greater than 100 µM and the TGI (NCI-H226 lung) was greater than 100 µM. It also gave a TGI (NCI-H23 lung) greater than 100 µM, a TGI (NCI-H460 lung) greater than 100 µM and a TGI (NCI-H522 lung) greater than 100 µM. For the same compound, the TGI (NCI/ADR-RES ovarian) was greater than 100 µM, the TGI (OVCAR-3 ovarian) was greater than 100 µM and the TGI (OVCAR-4 ovarian) was greater than 100 µM. The TGI (OVCAR-5 ovarian) was greater than 100 µM, the TGI (OVCAR-8 ovarian) was greater than 100 µM and the TGI (PC-3 prostate) was greater than 100 µM. For the same compound, the TGI (RPMI-8226 leukemia) was greater than 100 µM, the TGI (RXF 393 renal) was greater than 100 µM and the TGI (SF-268 CNS) was greater than 100 µM. It also gave a TGI (SF-295 CNS) greater than 100 µM, a TGI (SF-539 CNS) greater than 100 µM and a TGI (SK-MEL-2 melanoma) greater than 100 µM. It also gave a TGI (SK-MEL-28 melanoma) greater than 100 µM, a TGI (SK-MEL-5 melanoma) greater than 100 µM and a TGI (SK-OV-3 ovarian) greater than 100 µM. For the same compound, the TGI (SN12C renal) was greater than 100 µM, the TGI (SNB-19 CNS) was greater than 100 µM and the TGI (SNB-75 CNS) was greater than 100 µM. For the same compound, the TGI (SR leukemia) was greater than 100 µM, the TGI (SW-620 colon) was greater than 100 µM and the TGI (T-47D breast) was greater than 100 µM. The TGI (TK-10 renal) was greater than 100 µM, the TGI (U251 CNS) was greater than 100 µM and the TGI (UACC-257 melanoma) was greater than 100 µM. It also gave a TGI (UACC-62 melanoma) greater than 100 µM and a TGI (UO-31 renal) greater than 100 µM.

With `O=C(N=Nc1ccc(Br)cc1)NNc1ccc(Br)cc1` the TGI (A498 renal) was greater than 100 µM, the TGI (CAKI-1 renal) was 52.9 µM and the TGI (CCRF-CEM leukemia) was 18.2 µM. The TGI (COLO 205 colon) was 48.9 µM, the TGI (DU-145 prostate) was greater than 100 µM and the TGI (HCC-2998 colon) was 55.7 µM. The TGI (HCT-116 colon) was 31.3 µM, the TGI (HCT-15 colon) was 58.2 µM and the TGI (HL-60(TB) leukemia) was greater than 100 µM. It also gave a TGI (HOP-62 NSCLC) of 32.6 µM, a TGI (HOP-92 NSCLC) of 30.7 µM and a TGI (HT29 colon) of 33.1 µM. The TGI (IGROV1 ovarian) was 64.7 µM, the TGI (K-562 leukemia) was 25 µM and the TGI (KM12 colon) was 35.1 µM. For the same compound, the TGI (M14 melanoma) was 31.8 µM, the TGI (MALME-3M melanoma) was 87.1 µM and the TGI (MCF7 breast) was 40.8 µM. It also gave a TGI (MDA-MB-231 breast) of 47.2 µM, a TGI (MDA-MB-435) of 46.1 µM and a TGI (MDA-N) of 64.7 µM. It also gave a TGI (MOLT-4 leukemia) of 26 µM, a TGI (NCI-H226 lung) of 47.1 µM and a TGI (NCI-H23 lung) of 68.9 µM. The TGI (NCI-H460 lung) was 44 µM, the TGI (NCI-H522 lung) was 31 µM and the TGI (NCI/ADR-RES ovarian) was 43.3 µM. For the same compound, the TGI (OVCAR-3 ovarian) was 30.5 µM, the TGI (OVCAR-5 ovarian) was 57.1 µM and the TGI (OVCAR-8 ovarian) was greater than 100 µM. The TGI (PC-3 prostate) was 31.9 µM, the TGI (RPMI-8226 leukemia) was 78 µM and the TGI (RXF 393 renal) was 28.7 µM. The TGI (SF-295 CNS) was greater than 100 µM, the TGI (SK-MEL-2 melanoma) was 37.9 µM and the TGI (SK-MEL-28 melanoma) was 64.5 µM. For the same compound, the TGI (SK-MEL-5 melanoma) was 26.9 µM, the TGI (SK-OV-3 ovarian) was 74 µM and the TGI (SNB-19 CNS) was greater than 100 µM. The TGI (SNB-75 CNS) was 61.9 µM, the TGI (SR leukemia) was greater than 100 µM and the TGI (T-47D breast) was greater than 100 µM. The TGI (U251 CNS) was 34.7 µM, the TGI (UACC-62 melanoma) was 27.2 µM and the TGI (UO-31 renal) was 65.2 µM.
